pEC50: −log10 of the molar value. Converted amounts (≈) assume the structure as drawn.
How the values were obtained:
[1] = Pharmacokinetics in rat (iv and PO); type: in vivo
[2] = Pharmacokinetics in mice (iv and PO); type: in vivo
Nav1.5 = Nav1.5 (Homo sapiens (Human), UniProt Q14524); assay: Inhibition of cardiac sodium ion channel Nav1.5; type: biochemical
HBsAg secretion = assay: HBsAg assay (ELISA of secreted HBsAg, HepG2-Clone42 cells); type: cell-based, HBV; details: Hepatitis B virus, read-out: HBsAg EC50, HepG2-Clone42 cells, HBsAg secretion reduced 50% vs DMSO control
Experimental: HepG2-Clone42, a Tet-inducible HBV-expressing cell line with a stably integrated 1.3mer copy of the HBV ayw strain, was generated based on the Tet-inducible HepAD38 cell line with slight modifications. Ladner S K, et al., Antimicrobial Agents and Chemotherapy. 41(8):1715-1720 (1997). HepG2-Clone42 cells were cultured in DMEM/F-12+Glutamax™ (Life Technologies, Carlsbad, Calif., USA), supplemented with 10% fetal bovine serum (Life Technologies), G-418 (Corning, Manassas, Va., USA) at a final concentration of 0.5 mg/mL, and 5 μg/mL Doxycycline (Sigma, St. Louis, Mo., USA) and maintained in 5% CO2 at 37° C.
HepG2-Clone42 cells were seeded in into black clear-bottom 96-well plates at a concentration of 6.0×10^4 cells/well. 24 hours post-seeding, the cells were treated with 200 μl/well of media containing five-fold serial dilutions of compounds in DMSO. DMSO alone was used as the no drug control. The final DMSO concentration in all wells was 0.5%.
The HBsAg ELISA kit (Alpha Diagnostic International, San Antonio, Tex., USE, Catalog #4110) was used to determine the level (semi-quantitative) of secreted HBV sAg.
The HBSAg ELISA assay was performed following the manufacturer's protocol as described.
Step 1. Pipet 100 μL each of compound or DMSO treated samples into HBsAg ELISA plates. Seal plates and incubate at room temp for 60 minutes.
Step 2. Aspirate samples and wash three times with Wash Buffer. Dispense 100μ of antibody-HRP conjugate to each well. Incubate at room temp for 30 minutes.
Step 3. Aspirate samples and wash three times with Wash Buffer. Add 100 μL of TMB Substrate to all wells and incubate 15 minutes at room temp.
Step 4. Dispense 100 μL of Stop Solution to each well. Measure absorbance of ELISA plate at 450 nm.
EC50 values were determined as follows: • 1. Determine the percent of HBsAg secretion inhibition. Calculate the percent inhibition on of HBsAg secretion inhibition using the following equation: 100×(XC−MB)/(MD−MB) • where XC is the absorbance signal from compound-treated well; MB is average absorbance signal (background signal) for column 12 (no cells+HBsAg ELISA sample buffer) and MD is average absorbance signal from DMSO-treated wells. Then calculate EC50 values by non-linear regression using a four parameter curve logistic equation. The curve fit model employed is XLFit Dose Response One Site Model 204: y=(A+((B−A)/(1+(10^((C−x)*D))))) where A is the minimum y value, B is the maximum y value, C is the log EC50 value, and D is the slope factor. High Throughput Solubility Measurement • 1. Transfer 20 ul of 10 mM DMSO stock solution into a 96 deep well plate labeled as […] and 5 ul to another plate labeled as compound standard plate. • 2. Place the buffer plate in a Multi-Tainer MT-4 container (FTS Systems). Freeze dry overnight to remove DMSO. • 3. Add 100 ul of Cl-free PBS (pH 6.8) to the dried compound in the buffer plate and 95 ul of DMSO to the standard plate. • 4. The buffer plate is be sonicated in a water bath for 10 min. • 5. The two plates are then placed onto the VWR orbital shaker to equilibrate for 24 hours at room temperature. • 6. The buffer plate is centrifuged at 4000 rpm for 30 min. • 7. Transfer 10 ul aliquots of supernatant from the buffer plate to a sample plate and dilute 5 fold. • 8. Inject both compound standard and sample into the UPLC/UV/CLND/MS to generate multi detector qualitative and quantitive analytical data. • 9. Data was processed with Xcalibur. CLND equimolar response was used for measuring compound concentration of DMSO solution. UV270 nm or MS relative ratio was used for solubility determination.

[3] = High throughput solubility measurement in PBS; type: physicochemical; details: Cl-free PBS, aqueous buffer, thermodynamic from solid; PBS (phosphate-buffered saline), pH 6.8, 24 hours at room temperature
Description: The following table provides data for solubility of compounds of the invention in PBS (phosphate-buffered saline), using a standard solubility screening method.

[4] = Pharmacokinetics in dog (iv and PO); type: in vivo

For `COCCCOc1cc2c(cc1OC)-c1cc(=O)c(C(=O)O)cn1[C@H]1[C@@H]2OCC1(C)C` [Compound 4.1, (3aR,12bR)-10-methoxy-11-(3-methoxypropoxy)-3,3-dimethyl-7-oxo-3,3a,7,12b-tetrahydro-2H-furo[3,2-c]pyrido[2,1-a]isoquinoline-6-carboxylic acid], the T1/2term. [1] was 1.2 h, the Cmax ([1]; in vivo, PO 2.0 mg/kg) was 2600 nM and the Tmax ([1]; in vivo, PO 2.0 mg/kg) was 2 h. It also gave an AUC ([1]; in vivo, PO 2.0 mg/kg, read-out: AUC PO) of 10.2 µM·h, a clearance ([1]; in vivo, iv 1.0 mg/kg) of 4.9 mL/min/kg and a bioavailability ([1]; in vivo, iv 1.0 mg/kg, PO 2.0 mg/kg, read-out: Oral BA (% F)) of 65%. The AUC ([1]; in vivo, iv 1.0 mg/kg, read-out: AUC iv) was 8 µM·h, the Vd ([1]; in vivo, iv 1.0 mg/kg, read-out: Vss) was 0.75 L/kg and the T1/2term. [2] was 1.8 h. It also gave a Cmax ([2]; mouse, in vivo, PO 2.0 mg/kg) of 1900 nM, a Tmax ([2]; mouse, in vivo, PO 2.0 mg/kg) of 1 h and an AUC ([2]; mouse, in vivo, PO 2.0 mg/kg, read-out: AUC PO) of 7.2 µM·h. For the same compound, the clearance ([2]; mouse, in vivo, iv 1.0 mg/kg) was 12.7 mL/min/kg, the bioavailability ([2]; mouse, in vivo, iv 1.0 mg/kg, PO 2.0 mg/kg, read-out: Oral BA (% F)) was 100% and the AUC ([2]; mouse, in vivo, iv 1.0 mg/kg, read-out: AUC iv) was 2.9 µM·h. For the same compound, the Vd ([2]; mouse, in vivo, iv 1.0 mg/kg, read-out: Vss) was 1.5 L/kg, the pEC50 (Nav1.5) was under 3.30 and the pEC50 (HBsAg secretion) was 9.52. The solubility at 24 h [3] was 1600 µM (≈ 687 µg/mL), the T1/2term. [4] was 12.3 h and the Cmax ([4]; in vivo, PO 1.0 mg/kg) was 3.3 µM. It also gave a Tmax ([4]; in vivo, PO 1.0 mg/kg) of 48 min, an AUC ([4]; in vivo, PO 1.0 mg/kg, read-out: AUC PO) of 12.8 µM·h and a clearance ([4]; in vivo, iv 0.5 mg/kg) of 2.7 mL/min/kg. It also gave a bioavailability ([4]; in vivo, iv 0.5 mg/kg, PO 1.0 mg/kg, read-out: Oral BA (% F)) of 94%, an AUC ([4]; in vivo, iv 0.5 mg/kg, read-out: AUC iv) of 6.2 µM·h and a Vd ([4]; in vivo, iv 0.5 mg/kg, read-out: Vss) of 1.7 L/kg.

Source: patent publication US10093673B2, “Tetracyclic pyridone compounds as antivirals” (Novartis AG, priority 2016, dated 2018)
